Reference: paper PMC10247784, “Physiological activation of human and mouse bitter taste receptors by bile acids” (Communications Biology, 2023)

Target: T1, mouse Tas2r108 (Mus musculus, UniProt Q9JKT3)
T1 construct: expressed in transfected cells; host or cells: HEK293T-Gα16gust44
T1 sequence (Q9JKT3 1-297): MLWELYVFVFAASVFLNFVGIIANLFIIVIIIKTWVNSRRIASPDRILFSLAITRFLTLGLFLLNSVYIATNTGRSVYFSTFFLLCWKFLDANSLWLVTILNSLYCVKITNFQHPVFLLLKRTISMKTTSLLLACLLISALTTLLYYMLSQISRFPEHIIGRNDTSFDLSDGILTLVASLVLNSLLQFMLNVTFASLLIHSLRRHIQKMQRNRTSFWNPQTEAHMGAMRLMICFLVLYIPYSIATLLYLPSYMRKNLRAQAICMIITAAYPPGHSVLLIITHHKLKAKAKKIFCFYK
Assay: Calcium imaging assay (FLIPR), HEK293T-Gα16gust44 cells transfected with mouse Tas2r108
Assay type: cell-based
Settings: for Δ F/F: Tas2r108
Protocol: This set of bile acids was chosen because of their commercial availability in high purities, their diversity within the class of bile acids and their previous detection and quantitation in human blood. Stock solutions were prepared in DMSO.
As basal growth medium for the HEK293T-Gα16gust44 cell line[17],[59] served Dulbecco’s modified eagle medium (DMEM) (Thermo Fisher Scientific, Darmstadt, Germany) supplemented with 10 % fetal bovine serum (Sigma-Aldrich, Steinheim, Germany), 2 mM L-glutamine (Sigma-Aldrich, Steinheim, Germany), 100 units/ml penicillin (Sigma Aldrich, Steinheim, Germany) and 100 µg/ml streptomycin (Sigma Aldrich, Steinheim, Germany). Growth conditions were 37 °C, 5 % CO2 and saturated air-humidity[60].
HEK293T-Gα16gust44 cells were seeded on poly-D-lysine (10 µg/ml) coated 96-well plates to reach a confluence of 40-60 % the next day. For transient transfection 150 ng of plasmid DNA containing the receptor of interest and 0.3 µl lipofectamine 2000 (Thermo Fisher Scientific, Darmstadt, Germany) per well were used and transfection took place according to the manual of lipofectamine 2000. […] The empty vector DNA (mock) was transfected as negative control[14],[41].
Cells were loaded using the calcium-sensitive fluorescent dye Fluo-4-AM (Abcam, Cambridge, Great Britain) in the presence of 2.5 mM probenecid (Sigma-Aldrich, Steinheim, Germany) the day after transfection[13],[41]. 1 h after loading, cells were washed with C1 buffer using a BioTek Cell Washer, incubated in the dark for half an hour and washed again. For automated agonist application and measurement of fluorescence changes, a FLIPR^TETRA device (Molecular Devices, San José, United States) was used. Viability of cells was tested by application of 100 nM Somatostatin 14 (Bachem, Bubendorf, Switzerland)[42].
Measured data were negative control corrected by subtracting the signal of the mock-transfected cells and exported to Microsoft Excel using the FLIPR software ScreenWorks 4.2. In Microsoft Excel software, standardization of maximum fluorescence intensities to the basal fluorescence and normalization to the buffer-only control was done to calculate the relative fluorescence changes (ΔF/F).
Initial screening experiments performed in duplicate wells were confirmed by at least one replication and representative traces were selected for display. All dose-response relationships were determined by three independent experiments (biological replicates) performed in duplicates (technical replicates). Threshold concentrations, defined as lowest substance concentrations leading to statistically significant elevated fluorescence changes in receptor-transfected cells compared with empty vector-transfected cells, were determined using SigmaPlot with Student’s t-test to evaluate statistical significance (p < 0.01).

Δ F/F (conc. 0,01 mM): 0.0107 | Δ F/F (conc. 0,1 mM): 0.0182 | Δ F/F (conc. 0,03 mM): 0.00676 | Δ F/F (conc. 0,3 mM): 0.06222 | Δ F/F (conc. 0,001 mM): 0.002806 | Δ F/F (conc. 1 mM): 0.4313 | Δ F/F (conc. 0,003 mM): 0.003344 | RLU (Time 0 s): 0 RLU | RLU (Time 2 s): 7.69 RLU | RLU (Time 4 s): 11.6885 RLU | RLU (Time 6 s): 14.9144 RLU | RLU (Time 8 s): 2.856 RLU | RLU (Time 12 s): -20.1582 RLU | RLU (Time 14 s): -24.1348 RLU | RLU (Time 16 s): -22.3266 RLU | RLU (Time 18 s): -18.1852 RLU | RLU (Time 137.562 s): 194.213 RLU | RLU (Time 143.562 s): 209.767 RLU | RLU (Time 149.562 s): 181.475 RLU | RLU (Time 155.562 s): 183.974 RLU | RLU (Time 161.562 s): 173.161 RLU | RLU (Time 167.562 s): 179.231 RLU | RLU (Time 173.562 s): 187.201 RLU | RLU (Time 179.562 s): 174.25 RLU | RLU (Time 185.562 s): 178.039 RLU | RLU (Time 191.562 s): 190.798 RLU | RLU (Time 197.562 s): 173.368 RLU | RLU (Time 203.562 s): 190.575 RLU | RLU (Time 209.562 s): 197.772 RLU | RLU (Time 215.562 s): 163.432 RLU | RLU (Time 221.562 s): 153.254 RLU | RLU (Time 227.562 s): 164.71 RLU | RLU (Time 233.562 s): 163.97 RLU | RLU (Time 239.562 s): 147.809 RLU | RLU (Time 245.562 s): 173.351 RLU | RLU (Time 293.562 s): 149.968 RLU | RLU (Time 299.562 s): 165.311 RLU | RLU (Time 305.562 s): 159.539 RLU | RLU (Time 311.562 s): 142.659 RLU | RLU (Time 317.562 s): 150.371 RLU | RLU (Time 323.562 s): 171.186 RLU | RLU (Time 329.562 s): 175.087 RLU | RLU (Time 335.562 s): 172.597 RLU | RLU (Time 341.562 s): 183.065 RLU | RLU (Time 347.562 s): 201.017 RLU | RLU (Time 353.562 s): 156.745 RLU | RLU (Time 359.562 s): 154.549 RLU | Activation threshold concentration Tas2r108 (p < 0.01 vs empty vector): 100 µM | RLU (time 18.797 s): -15.9795 RLU | RLU (time 20.797 s): -38.1063 RLU | RLU (time 22.797 s): -53.0656 RLU | RLU (time 24.797 s): -41.093 RLU | RLU (time 26.797 s): 10.1284 RLU | RLU (time 28.797 s): -11.2259 RLU | RLU (time 30.797 s): 42.3249 RLU | RLU (time 32.797 s): 14.625 RLU | RLU (time 34.797 s): 31.6874 RLU | RLU (time 36.797 s): 61.9173 RLU | RLU (time 38.797 s): 95.7369 RLU | RLU (time 40.797 s): 96.8837 RLU | RLU (time 42.797 s): 120.977 RLU | RLU (time 44.797 s): 126.004 RLU | RLU (time 46.797 s): 150.942 RLU | RLU (time 48.797 s): 139.074 RLU | RLU (time 50.797 s): 165.429 RLU | RLU (time 52.797 s): 178.894 RLU | RLU (time 54.797 s): 165.569 RLU | RLU (time 56.797 s): 184.08 RLU | RLU (time 58.797 s): 203.839 RLU | RLU (time 60.797 s): 208.856 RLU | RLU (time 62.797 s): 198.008 RLU | RLU (time 64.797 s): 192.835 RLU | RLU (time 66.797 s): 228.59 RLU | RLU (time 68.797 s): 198.902 RLU | RLU (time 70.797 s): 190.075 RLU | RLU (time 72.797 s): 224.267 RLU | RLU (time 74.797 s): 237.802 RLU | RLU (time 76.797 s): 195.521 RLU | RLU (time 78.797 s): 205.632 RLU | RLU (time 80.797 s): 224.221 RLU | RLU (time 82.797 s): 233.724 RLU | RLU (time 84.797 s): 213.598 RLU | RLU (time 86.797 s): 226.297 RLU | RLU (time 88.797 s): 230.997 RLU | RLU (time 90.797 s): 224.416 RLU | RLU (time 92.797 s): 254.391 RLU | RLU (time 94.797 s): 247.364 RLU | RLU (time 96.797 s): 231.951 RLU | RLU (time 98.797 s): 231.597 RLU | RLU (time 100.797 s): 210.393 RLU | RLU (time 102.797 s): 230.574 RLU | RLU (time 104.797 s): 222.002 RLU | RLU (time 106.797 s): 222.39 RLU | RLU (time 108.797 s): 212.16 RLU | RLU (time 110.797 s): 216.252 RLU | RLU (time 112.797 s): 216.052 RLU | RLU (time 114.797 s): 221.895 RLU | RLU (time 116.797 s): 215.342 RLU | RLU (time 118.797 s): 209.462 RLU | RLU (time 120.797 s): 222.728 RLU | RLU (time 122.797 s): 206.205 RLU | RLU (time 124.797 s): 193.188 RLU | RLU (time 126.797 s): 207.494 RLU | RLU (time 128.797 s): 210.082 RLU | RLU (time 130.797 s): 216.943 RLU | RLU (time 132.797 s): 210.174 RLU | RLU (time 134.797 s): 194.975 RLU | RLU (time 136.797 s): 218.165 RLU
Structure (SMILES): C[C@H](CCC(=O)NCC(=O)O)[C@H]1CC[C@H]2[C@@H]3[C@H](O)C[C@@H]4C[C@H](O)CC[C@]4(C)[C@H]3C[C@H](O)[C@]12C [Glycocholic Acid, glycocholic acid]
